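Five compound concentrations were applied to cells in 96-well plates for 48 hours; endpoints were derived by simple linear interpolation of the resulting dose-response curve. TGI marks complete inhibition of growth.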
Experiments:
Assay in all cases: inhibition of tumour cell growth, NCI panel, 48 h
786-0 renal = test system: 786-0 renal
HCT-116 colon = test system: HCT-116 colon
HCT-15 colon = test system: HCT-15 colon
HOP-62 NSCLC = test system: HOP-62 NSCLC
MALME-3M melanoma = test system: MALME-3M melanoma
MCF7 breast = test system: MCF7 breast
MDA-MB-231 breast = test system: MDA-MB-231 breast
NCI-H522 lung = test system: NCI-H522 lung
NCI/ADR-RES ovarian = test system: NCI/ADR-RES ovarian
OVCAR-8 ovarian = test system: OVCAR-8 ovarian
SF-268 CNS = test system: SF-268 CNS
SF-539 CNS = test system: SF-539 CNS
T-47D breast = test system: T-47D breast
U251 CNS = test system: U251 CNS
UACC-62 melanoma = test system: UACC-62 melanoma
EKVX NSCLC = test system: EKVX NSCLC
IGROV1 ovarian = test system: IGROV1 ovarian
LOX IMVI melanoma = test system: LOX IMVI melanoma
MDA-N = test system: MDA-N
UACC-257 melanoma = test system: UACC-257 melanoma

SMILES | TGI (786-0 renal) [µM] | TGI (HCT-116 colon) [µM] | TGI (HCT-15 colon) [µM] | TGI (HOP-62 NSCLC) [µM] | TGI (MALME-3M melanoma) [µM] | TGI (MCF7 breast) [µM] | TGI (MDA-MB-231 breast) [µM] | TGI (NCI-H522 lung) [µM] | TGI (NCI/ADR-RES ovarian) [µM] | TGI (OVCAR-8 ovarian) [µM] | TGI (SF-268 CNS) [µM] | TGI (SF-539 CNS) [µM] | TGI (T-47D breast) [µM] | TGI (U251 CNS) [µM] | TGI (UACC-62 melanoma) [µM] | TGI (EKVX NSCLC) [µM] | TGI (IGROV1 ovarian) [µM] | TGI (LOX IMVI melanoma) [µM] | TGI (MDA-N) [µM] | TGI (UACC-257 melanoma) [µM]
CCOC(=O)[C@]12C(=C(c3ccccc3)O[C@H]3C=CCC[C@H]31)C(=O)C(=O)N2c1ccccc1 | > 100 | > 100 | > 100 | > 100 | > 100 | > 100 | > 100 | > 100 | > 100 | > 100 | > 100 | > 100 | > 100 | 38.6 | > 100 | – | – | – | – | –
N#CC(c1nc2ccccc2s1)c1ncnc(Cl)c1[N+](=O)[O-] (stereo unspecified) | 42.7 | 26.4 | 35.8 | 97.2 | 41.8 | – | 92.1 | 33.5 | 44.3 | 34.7 | 32.9 | 61.3 | 86.9 | 95.7 | – | 76.5 | 30.5 | 33.1 | 37.5 | 41
O=[N+]([O-])c1ccc2[nH]nc(OCc3ccccn3)c2c1 | > 100 | > 100 | > 100 | > 100 | > 100 | – | > 100 | > 100 | > 100 | > 100 | > 100 | > 100 | > 100 | > 100 | > 100 | > 100 | > 100 | > 100 | > 100 | > 100
CC1=NNC(=O)C1C1CC(c2c[nH]c3ccccc23)=NNC1=S (stereo unspecified) | > 100 | > 100 | > 100 | > 100 | > 100 | – | > 100 | > 100 | > 100 | > 100 | > 100 | > 100 | > 100 | > 100 | > 100 | > 100 | – | – | > 100 | > 100
COC(=O)[C@H](Cc1ccccc1)NC(=O)N1CCCN(C(=O)N[C@@H](Cc2ccccc2)C(=O)OC)CCCN(C(=O)N[C@@H](Cc2ccccc2)C(=O)OC)CCC1 | 32.1 | 38.9 | 63.4 | 35.5 | 34.1 | 49.3 | – | 35.2 | 74.7 | 47.2 | 34 | – | 34.8 | 32.8 | 30.2 | 53.5 | 31.3 | 29.8 | 45.8 | 35.5
O=[N+]([O-])c1ccc(-c2nc3ccc([N+](=O)[O-])cc3[nH]2)cc1 | > 100 | 38.3 | > 100 | 97 | 84.2 | > 100 | – | 88.4 | 57.6 | > 100 | > 100 | > 100 | 61.7 | 70.1 | > 100 | > 100 | > 100 | 67.8 | > 100 | > 100
n1onc2c1NC1Nc3nonc3NC1N2 (stereo unspecified) | > 100 | > 100 | > 100 | > 100 | – | > 100 | – | > 100 | > 100 | > 100 | > 100 | > 100 | > 100 | > 100 | – | > 100 | > 100 | > 100 | > 100 | –
CCOC(O)(NC(=O)C(C(F)(F)F)C(F)(F)F)C(F)(F)F (stereo unspecified) | > 100 | > 100 | > 100 | – | – | – | – | – | > 100 | > 100 | > 100 | > 100 | > 100 | > 100 | – | > 100 | > 100 | > 100 | > 100 | > 100
O=S(=O)(N/N=C1\CC2CCC1C2)c1ccccc1 (stereo unspecified) | > 100 | > 100 | > 100 | > 100 | > 100 | > 100 | – | > 100 | > 100 | > 100 | > 100 | – | – | > 100 | > 100 | > 100 | > 100 | > 100 | > 100 | > 100
Cc1c(C#N)c2ccccc2c2nc3ccccc3n12 | > 100 | > 100 | > 100 | > 100 | – | > 100 | 86.9 | > 100 | > 100 | > 100 | – | > 100 | – | > 100 | > 100 | > 100 | > 100 | > 100 | > 100 | > 100
c1ccc2c(c1)Nc1ccccc1[P+]21c2ccccc2Nc2ccccc21 | 2.87 | 1.05 | 24.5 | 1.58 | – | – | 0.588 | 0.728 | > 100 | 5.39 | 6.63 | 0.817 | 1.91 | 1.4 | – | 2.74 | – | 2.23 | 1.11 | –
O=C1NC(=O)C(CC(C(=O)C(=O)Nc2ccccc2Cl)C(=O)c2ccc3ccccc3c2)C(=O)N1 (stereo unspecified) | > 100 | > 100 | > 100 | > 100 | – | > 100 | > 100 | > 100 | > 100 | > 100 | > 100 | > 100 | – | > 100 | > 100 | > 100 | > 100 | > 100 | > 100 | > 100
CN(C)Cc1cc(N=Nc2cccc(Cl)c2)ccc1O | 27.4 | 52 | 20.5 | 22.9 | 31.6 | 29 | 36.7 | 23.9 | 22.4 | 28.5 | 40.3 | 33 | 34 | 33.1 | 13.1 | – | 27.1 | 16.6 | 23.9 | 29.3
CCOc1ccc(Nc2nc3c(s2)C(=O)c2ccccc2C3=O)cc1 | 31.2 | 33.2 | > 100 | 32 | 8.19 | 38.4 | 18.4 | 78.7 | – | – | 16.7 | 35.7 | 49.9 | 20.7 | 5.13 | 50.4 | 26.7 | 15.8 | 3.69 | 27.4
COC(=O)C(C)(C)OCc1ccc(C2NC(=O)N(c3cccc(Cl)c3)C(=O)N2c2cccc(Cl)c2)cc1 (stereo unspecified) | > 100 | > 100 | > 100 | > 100 | – | > 100 | > 100 | 76.8 | > 100 | > 100 | > 100 | > 100 | – | > 100 | > 100 | 78.8 | > 100 | – | > 100 | > 100
COP(=O)(Cc1ccc(/C=C/C#N)o1)OC | > 100 | > 100 | > 100 | > 100 | > 100 | > 100 | > 100 | > 100 | > 100 | > 100 | > 100 | > 100 | > 100 | > 100 | > 100 | > 100 | > 100 | – | – | –
Cc1ccc(Cc2n[nH]c(=O)n2-c2ccccc2)cc1 | > 100 | > 100 | > 100 | – | > 100 | > 100 | > 100 | – | > 100 | > 100 | > 100 | > 100 | 61.8 | > 100 | > 100 | – | > 100 | – | > 100 | > 100
Cn1c(-c2cccs2)cc(-c2ccccc2)c1-c1cccs1 | > 100 | > 100 | > 100 | 51.5 | – | > 100 | > 100 | > 100 | > 100 | > 100 | > 100 | > 100 | > 100 | > 100 | > 100 | > 100 | > 100 | > 100 | > 100 | > 100
Cc1nc2ccc(Cl)cc2c2c1CCS2 | > 100 | > 100 | > 100 | > 100 | > 100 | > 100 | > 100 | > 100 | > 100 | > 100 | > 100 | > 100 | > 100 | > 100 | > 100 | – | > 100 | > 100 | > 100 | > 100
CC(C)(C)n1c(=O)[nH]n(C2NN=Cc3cccc4cccc2c34)c1=O (stereo unspecified) | > 100 | > 100 | > 100 | – | > 100 | > 100 | > 100 | – | > 100 | > 100 | > 100 | 45.1 | > 100 | > 100 | > 100 | 68.8 | – | > 100 | 59.4 | > 100
COc1ccc(/C=C2\C(=O)N(C)C(=O)c3cc(OC)c(OC)cc32)cc1OC | > 100 | > 100 | > 100 | 90 | – | > 100 | > 100 | 36.4 | – | – | – | 76.2 | > 100 | > 100 | 94 | 27.9 | > 100 | 34.1 | 75.2 | > 100

Reference: PubChem BioAssay (NCI)
